The source of these data is ChEMBL document CHEMBL1201862, “PubChem BioAssay data set” (2004).

Among the test systems are SF-539; NCI-H460; OVCAR-4; HL-60; UACC-257; TK-10; NCI-H522; SW-620; SNB-19; RXF 393; NCI-H226; HOP-92; HCT-15; SNB-75; OVCAR-5.
Common to all, as to assay: NCI-60 cell line screen, 48 h

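Interpolation was linear, between the two tested concentrations surrounding the appropriate level; five concentrations were tested over 48 hours in 96-well plates. GI50 is the concentration that inhibits growth by half.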 Activity calls are given as the source filed them. Rule as the data show it: active = GI50 up to about 1.1 µM and inactive = higher.

With `CO[C@H](c1ccccc1)[C@H](C)N(C)c1ccc2ccccc2c1C1=NC(C)(C)CO1`, the GI50 in the assay on SF-539 is 16.2 µM (inactive); in the assay on NCI-H460, 16 µM (inactive); with OVCAR-4, > 10 µM (inactive); in the assay on HL-60, 21.3 µM (inactive); in the assay on UACC-257, 15.7 µM (inactive); in the assay on TK-10 it was 22.9 µM (inactive). The GI50 is 4.21 µM (inactive) in the assay on NCI-H522; 15.9 µM (inactive) in the assay with SW-620; 24.8 µM (inactive) in the assay on SNB-19; 13.8 µM (inactive) in the assay on RXF 393; 16.2 µM (inactive) in the assay on NCI-H226; 15.7 µM (inactive) with HOP-92. In addition, the GI50 in the assay with HCT-15 was 14.6 µM; in the assay on SNB-75 it was 15.5 µM (inactive).
For the compound `O=c1c(-c2cccc3ccccc23)c(-c2cccc3ccccc23)c1=O`, the GI50 in the assay on SF-539 is 1.38 µM (inactive); with NCI-H460, 0.586 µM (active); in the assay with HL-60, 0.721 µM (active); with UACC-257 it was 4.25 µM (inactive); in the assay on TK-10, 15.1 µM (inactive); with NCI-H522, 0.489 µM (active). The GI50 with SW-620 is 0.33 µM (active); in the assay with SNB-19 it was 1.48 µM (inactive); with RXF 393 it was 4.69 µM (inactive); with NCI-H226 it was 2.32 µM (inactive); with HOP-92, 0.948 µM (active); in the assay on HCT-15 it was 2.42 µM. Also, the GI50 is 24.7 µM (inactive) with OVCAR-5 and 0.2 µM (active) in the assay on SNB-75.
As to `Cc1c(C(=O)CC(=O)C(=O)Nc2ccc(Cl)c(Cl)c2)[n+]([O-])c2ccccc2[n+]1[O-]`, the GI50 with SF-539 is 26.9 µM (inactive); in the assay on NCI-H460 it was 24.7 µM (inactive); in the assay on OVCAR-4, 15.2 µM (inactive); with HL-60, 17.8 µM (inactive); with UACC-257 it was 17.5 µM (inactive); in the assay with TK-10 it was 46.5 µM (inactive). In addition, the GI50 is 18.9 µM (inactive) in the assay with NCI-H522; 25.1 µM (inactive) in the assay on SW-620; 27 µM (inactive) in the assay on SNB-19; 27.4 µM (inactive) in the assay with RXF 393; > 100 µM (inactive) with NCI-H226; 27.5 µM (inactive) in the assay on HOP-92. Also, the GI50 with HCT-15 was 20.5 µM; in the assay on OVCAR-5, 36.4 µM (inactive); in the assay on SNB-75, 18.9 µM (inactive).
As to `CC1(O)C(C)(O)C2(C)O[Te]3(OC12C)OC1(C)C(C)(O)C(C)(O)C1(C)O3` (stereo not given), the GI50 with SF-539 is 29.1 µM (inactive); in the assay on NCI-H460, 3.32 µM (inactive); in the assay with OVCAR-4, 24.3 µM (inactive); in the assay with HL-60 it was 10.6 µM (inactive); in the assay with UACC-257, > 100 µM (inactive); in the assay on TK-10, 23.1 µM (inactive). Besides, the GI50 in the assay with NCI-H522 was 17.8 µM (inactive); in the assay on SW-620 it was > 10 µM (inactive); in the assay with SNB-19 it was 28.1 µM (inactive); with RXF 393, 12.4 µM (inactive); in the assay on NCI-H226 it was 29.4 µM (inactive); in the assay with HOP-92, 31 µM (inactive). For the same compound, the figures for the GI50 in the assay with HCT-15, with OVCAR-5 and in the assay with SNB-75 were 11.5 µM, 15.3 µM (inactive) and > 100 µM (inactive), respectively.
Regarding `Cc1cc(Cl)cc2c1NC(=O)C2(O)CC(=O)c1ccc(Br)cc1` (stereo not given), the GI50 in the assay with SF-539 was 48.3 µM (inactive); in the assay with NCI-H460, 55.7 µM (inactive); in the assay on OVCAR-4, 14.2 µM (inactive); in the assay with HL-60, 16.9 µM (inactive); in the assay with UACC-257 it was 32.6 µM (inactive); in the assay on TK-10, > 73.8 µM (inactive). Further, the GI50 with NCI-H522 was 45.7 µM (inactive); in the assay with SW-620, > 90.6 µM (inactive); in the assay on SNB-19 it was 71 µM (inactive); with RXF 393 it was 21.8 µM (inactive); in the assay on NCI-H226, > 100 µM (inactive); with HOP-92 it was 94.4 µM (inactive). Also, the GI50 was 57 µM in the assay with HCT-15, > 100 µM (inactive) in the assay on OVCAR-5 and 45.5 µM (inactive) in the assay with SNB-75.
As for `O=C1N[C@H](Cc2c[nH]cn2)C(=O)N2CCC[C@@H]12`, the GI50 in the assay on NCI-H460, with OVCAR-4, with HL-60, with UACC-257, in the assay with TK-10 and with NCI-H522 was > 100 µM (inactive) each time. The GI50 is > 100 µM (inactive) in the assay with SW-620; > 100 µM (inactive) in the assay with SNB-19; > 100 µM (inactive) in the assay with RXF 393; > 100 µM (inactive) with HOP-92; over 100 µM in the assay with HCT-15; > 100 µM (inactive) in the assay on OVCAR-5. Further, in the assay with SNB-75, the GI50 was 65.8 µM (inactive).
Turning to `COc1ccccc1/C=C/C(=O)c1sc(-c2cccnc2)nc1C`, the GI50 in the assay with SF-539, in the assay on NCI-H460, with HL-60, in the assay with UACC-257, in the assay with TK-10 and in the assay on NCI-H522 was > 100 µM (inactive) each time. The GI50 is > 100 µM (inactive) in the assay on SW-620; 27.9 µM (inactive) in the assay on RXF 393; > 100 µM (inactive) with NCI-H226; > 100 µM (inactive) with HOP-92; over 100 µM in the assay with HCT-15; > 100 µM (inactive) with OVCAR-5. Moreover, the GI50 in the assay with SNB-75 is 22.8 µM (inactive).
On to `O=C1CCCC2COc3ccc(O)c1c32` (stereo not given), for which the GI50 in the assay on SF-539, in the assay on NCI-H460, with OVCAR-4, with HL-60, in the assay with UACC-257 and in the assay with TK-10 was > 100 µM (inactive) each time. For the same compound, the GI50 in the assay with NCI-H522 is > 100 µM (inactive); with SNB-19 it was > 100 µM (inactive); with RXF 393, > 100 µM (inactive); with NCI-H226, > 100 µM (inactive); in the assay on HOP-92, > 100 µM (inactive); with HCT-15 it was over 100 µM. For the same compound, the GI50 in the assay on OVCAR-5 and with SNB-75 was > 100 µM (inactive) in each case.
With `Cc1no[n+]([O-])c1/C=N/NS(=O)(=O)c1ccccc1`, the GI50 with SF-539, with OVCAR-4, in the assay with HL-60, with TK-10, in the assay with NCI-H522 and in the assay with SW-620 was > 100 µM (inactive) throughout. The GI50 was > 100 µM (inactive) in the assay on SNB-19; > 100 µM (inactive) in the assay with RXF 393; > 100 µM (inactive) in the assay on HOP-92; over 100 µM in the assay on HCT-15; > 100 µM (inactive) in the assay with OVCAR-5.
On to `O=C1CCC2(CC1)SCCCS2`, for which the GI50 with NCI-H460, in the assay with OVCAR-4, with HL-60, with UACC-257, in the assay with TK-10 and in the assay on NCI-H522 was > 100 µM (inactive) in each case. The GI50 is > 100 µM (inactive) with SW-620; > 100 µM (inactive) in the assay with SNB-19; > 100 µM (inactive) with RXF 393; > 100 µM (inactive) in the assay with NCI-H226; > 100 µM (inactive) in the assay with HOP-92; over 100 µM with HCT-15. Also, the GI50 in the assay on OVCAR-5 was > 100 µM (inactive); with SNB-75, 61.1 µM (inactive).
On to `Cn1ccnc1CCc1c(Cl)cccc1Cl`, for which the GI50 in the assay on SF-539, in the assay with NCI-H460, in the assay with OVCAR-4, in the assay with HL-60, with UACC-257 and in the assay with TK-10 was > 100 µM (inactive) throughout. Moreover, the GI50 in the assay on NCI-H522 is > 100 µM (inactive); with SW-620, > 100 µM (inactive); in the assay on RXF 393 it was > 100 µM (inactive); in the assay with NCI-H226 it was > 100 µM (inactive); in the assay on HOP-92, 52.1 µM (inactive); in the assay on HCT-15, over 100 µM. Also, the GI50 with OVCAR-5 and with SNB-75 was > 100 µM (inactive) throughout.
On to `O=C1OC(=O)C([Se]c2ccccc2)=C1[Se]c1ccccc1`, for which the GI50 in the assay with SF-539, in the assay on NCI-H460, with OVCAR-4, in the assay on HL-60, in the assay with UACC-257 and with TK-10 was > 100 µM (inactive) each time. The GI50 in the assay with NCI-H522 is > 100 µM (inactive); in the assay on SW-620, > 100 µM (inactive); in the assay with SNB-19, > 100 µM (inactive); in the assay on RXF 393 it was > 100 µM (inactive); with NCI-H226 it was > 100 µM (inactive); in the assay on HOP-92, 70.1 µM (inactive). The figures for the GI50 in the assay on HCT-15, in the assay with OVCAR-5 and in the assay on SNB-75 were over 100 µM, > 100 µM (inactive) and > 100 µM (inactive), respectively.
For the compound `C/C(CC(=O)Nc1ccccc1C)=N/NS(=O)(=O)c1ccc(C)cc1`, the GI50 in the assay on SF-539, in the assay with NCI-H460, with HL-60, in the assay on UACC-257, in the assay with TK-10 and in the assay with NCI-H522 was > 100 µM (inactive) each time. The GI50 with SW-620, in the assay on RXF 393, with NCI-H226, in the assay with HOP-92, with OVCAR-5 and with SNB-75 was > 100 µM (inactive) each time.
As for `C[N+](C)(C)CC(=O)N/N=C(/Cc1nc2ccc([N+](=O)[O-])cc2nc1O)C(=O)Nc1cc(C(F)(F)F)ccc1Cl`, the GI50 in the assay on SF-539, with NCI-H460, in the assay with OVCAR-4, with HL-60, with UACC-257 and with TK-10 was > 100 µM (inactive) each time. The GI50 with NCI-H522 is 28.4 µM (inactive); in the assay with SW-620 it was > 100 µM (inactive); in the assay with SNB-19, > 100 µM (inactive); with RXF 393, > 100 µM (inactive); in the assay on HOP-92 it was 62.1 µM (inactive); in the assay with OVCAR-5 it was > 100 µM (inactive).
As to `CC1=C(C(=O)Nc2cc(=O)n(C)c(=O)n2C)C(c2cccc([N+](=O)[O-])c2)C(C(=O)Nc2cc(=O)n(C)c(=O)n2C)=C(C)N1`, the GI50 was 26.7 µM (inactive) in the assay on SF-539; 62.7 µM (inactive) in the assay with NCI-H460; > 100 µM (inactive) in the assay with OVCAR-4; > 100 µM (inactive) in the assay with HL-60; > 100 µM (inactive) in the assay on UACC-257; > 100 µM (inactive) in the assay on TK-10. For the same compound, the GI50 in the assay with NCI-H522 is 44.5 µM (inactive); with SW-620, > 100 µM (inactive); in the assay with SNB-19, > 100 µM (inactive); with RXF 393 it was > 100 µM (inactive); in the assay on NCI-H226, > 100 µM (inactive); in the assay with HOP-92, 58.7 µM (inactive). Further, the GI50 in the assay on OVCAR-5 is > 100 µM (inactive); in the assay on SNB-75 it was 17.5 µM (inactive).
